From US11286281B2, “Homodetic cyclic peptides targeting alpha-4-beta-7 integrin” (priority 2017, dated 2022)
Numbered stars: 1 amine (or outer) side, 2 acyl side, 3 side chain; on linkers, the order of the positions; unused ones are H or OH. Square brackets hold non-standard residues; d marks the D form. Peptide text beside a SMILES is read from it. X1 = O=C(c1ccc(-c2ccc(N3CCNCC3)cc2)c(CN[*:1])c1)[*:2]

Target: T1, integrin α4β7 (Mus musculus, UniProt P26011+Q00651)
T1 construct: host or cells: TK-1 mouse T-cell lymphoma cells
T1 sequence (Q00651 41-1039): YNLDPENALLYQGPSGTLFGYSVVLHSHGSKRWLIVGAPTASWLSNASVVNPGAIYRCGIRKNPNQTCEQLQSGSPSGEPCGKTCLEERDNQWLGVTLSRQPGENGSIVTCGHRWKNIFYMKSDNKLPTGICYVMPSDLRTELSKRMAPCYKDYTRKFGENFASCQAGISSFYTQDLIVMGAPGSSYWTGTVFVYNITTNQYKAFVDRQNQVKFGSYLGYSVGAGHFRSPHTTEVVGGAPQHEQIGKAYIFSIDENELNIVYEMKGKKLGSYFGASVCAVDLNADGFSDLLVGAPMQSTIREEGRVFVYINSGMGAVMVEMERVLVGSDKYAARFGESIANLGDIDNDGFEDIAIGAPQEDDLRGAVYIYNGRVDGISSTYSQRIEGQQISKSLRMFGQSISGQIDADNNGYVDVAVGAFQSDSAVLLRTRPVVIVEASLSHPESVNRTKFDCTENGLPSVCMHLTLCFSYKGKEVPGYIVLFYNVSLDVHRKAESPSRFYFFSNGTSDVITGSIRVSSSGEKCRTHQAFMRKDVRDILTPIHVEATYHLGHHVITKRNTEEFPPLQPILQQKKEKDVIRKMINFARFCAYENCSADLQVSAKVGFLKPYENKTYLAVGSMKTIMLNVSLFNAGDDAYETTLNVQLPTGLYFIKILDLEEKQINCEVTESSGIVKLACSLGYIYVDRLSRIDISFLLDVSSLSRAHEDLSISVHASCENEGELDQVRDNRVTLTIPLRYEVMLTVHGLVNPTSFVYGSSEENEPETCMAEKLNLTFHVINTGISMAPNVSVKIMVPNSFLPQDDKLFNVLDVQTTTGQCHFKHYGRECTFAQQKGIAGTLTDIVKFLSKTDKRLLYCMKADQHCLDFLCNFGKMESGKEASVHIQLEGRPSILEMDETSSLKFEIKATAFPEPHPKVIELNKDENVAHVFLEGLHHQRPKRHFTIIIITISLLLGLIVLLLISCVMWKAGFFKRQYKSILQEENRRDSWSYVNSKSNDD
T1 sequence (P26011 20-806): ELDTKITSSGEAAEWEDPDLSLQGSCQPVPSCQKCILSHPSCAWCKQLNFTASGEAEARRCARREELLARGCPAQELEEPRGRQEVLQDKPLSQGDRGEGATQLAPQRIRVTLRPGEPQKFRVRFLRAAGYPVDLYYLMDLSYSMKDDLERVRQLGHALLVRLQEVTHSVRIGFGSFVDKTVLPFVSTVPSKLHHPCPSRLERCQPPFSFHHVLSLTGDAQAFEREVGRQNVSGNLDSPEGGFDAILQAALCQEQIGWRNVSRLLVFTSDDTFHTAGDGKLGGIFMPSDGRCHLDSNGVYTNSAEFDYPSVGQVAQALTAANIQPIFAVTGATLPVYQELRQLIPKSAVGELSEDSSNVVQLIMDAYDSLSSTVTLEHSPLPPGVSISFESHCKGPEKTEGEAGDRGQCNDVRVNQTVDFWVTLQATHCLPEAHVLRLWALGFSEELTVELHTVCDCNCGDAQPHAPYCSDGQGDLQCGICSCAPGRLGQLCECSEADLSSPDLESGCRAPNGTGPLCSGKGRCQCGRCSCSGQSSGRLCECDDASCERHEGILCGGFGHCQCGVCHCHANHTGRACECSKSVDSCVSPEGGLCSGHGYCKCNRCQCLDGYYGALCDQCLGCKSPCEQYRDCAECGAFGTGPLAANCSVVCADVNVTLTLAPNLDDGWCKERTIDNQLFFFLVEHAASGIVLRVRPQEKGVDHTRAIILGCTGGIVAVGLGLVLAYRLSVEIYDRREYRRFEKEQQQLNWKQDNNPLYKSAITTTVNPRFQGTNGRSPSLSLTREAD
Experiment: Integrin α4β7-MAdCAM mouse cell adhesion assay (TK-1 cells)
Type: cell-based
Settings: for IC50: TK-1 cells, read-out: IC50 in mouse α4β7-containing cell adhesion
Experimental: TK-1 mouse T-cells lymphoma cell lines (ATCC CRL2396) were cultured in RPMI 1640 medium (HyClone SH30027.1) supplemented with 10% FBS (Seradigm) and 1% Penicillin-Streptomycin. A 96-well plate (Costar, 3603) was coated with 100 μl/well of recombinant mouse MAdCAM-1 Fc Chimera (R&D Systems, 993-MC-050) solution at 0.25 μg/ml in coating buffer (50 mM sodium carbonate, pH 9.6). The plate was incubated overnight at 4° C. and washed twice with 150 μl per well wash buffer (0.05% Tween 20 in PBS), blocked with 250 μl per well blocking buffer (1% non-fat dry milk in PBS), and incubated for 2 hours at room temperature. TK-1 cells were resuspended at 10 million cells/ml in PBS containing […] and incubated at 37° C. for 30 min in a 50 ml tube. […] The plate was emptied by inverting and blotting on paper towels and washed manually twice with PBS. 100 μl PBS was then added to each well. The fluorescence was read (Ex495/Em515) using a plate reader (Tecan Infinite 1000). To calculate the dose response, the fluorescence value of control wells not containing cells was subtracted from each test well.

Row | SMILES | fold difference in IC50 between mouse α4β7-containing and human α4β7-containing cell adhesion (TK-1 versus RPMI8866, weaker in mouse) [fold] | IC50 [nM]
1 | CC(C)C[C@@H]1NC(=O)c2ccc(-c3ccc(N4CCNCC4)cc3)c(c2)CNC(=O)[C@@H]2CCCN2C(=O)[C@H](C)NC(=O)[C@H]([C@@H](C)O)NC(=O)[C@H](CC(=O)O)NC1=O [Compound 8] (cyclo(P[X1]LDTA)) | ~10 | –
2 | CC(C)C[C@@H]1NC(=O)c2ccc(-c3ccc(N4CCN(Cc5cccc(CN6CCN(c7ccc(-c8ccc9cc8CNC(=O)[C@@H]8CCCN8C(=O)[C@H](C)NC(=O)[C@H]([C@@H](C)O)NC(=O)[C@H](CC(=O)O)NC(=O)[C@H](CC(C)C)NC9=O)cc7)CC6)c5)CC4)cc3)c(c2)CNC(=O)[C@@H]2CCCN2C(=O)[C@H](C)NC(=O)[C@H]([C@@H](C)O)NC(=O)[C@H](CC(=O)O)NC1=O [Compound 18] | – | ~68
3 | CC(C)C[C@@H]1NC(=O)c2ccc(-c3ccc(N4CCN(C(=O)COCC(=O)N5CCN(c6ccc(-c7ccc8cc7CNC(=O)[C@@H]7CCCN7C(=O)[C@H](C)NC(=O)[C@H]([C@@H](C)O)NC(=O)[C@H](CC(=O)O)NC(=O)[C@H](CC(C)C)NC8=O)cc6)CC5)CC4)cc3)c(c2)CNC(=O)[C@@H]2CCCN2C(=O)[C@H](C)NC(=O)[C@H]([C@@H](C)O)NC(=O)[C@H](CC(=O)O)NC1=O [Compound 17] | – | ~97
